Data published in patent US20260041679A1, “METHOD OF TREATING HYPERTENSION WITH THE ALDOSTERONE SYNTHASE INHIBITOR BAXDROSTAT” (CINCOR PHARMA, INC., priority 2022, published 2026).

Test system: patients with uHTN
Assay: Study 124 Part 2: 2 mg baxdrostat monotherapy for 4 weeks, SBP and safety
Format: in vivo, human
Settings: Part 2
Description: Study 124 is a double-blind, placebo-controlled, dose range finding, multicenter study conducted in patients with uHTN receiving background antihypertensive agent(s) that are either an ACEI or an ARB, an ACEI/ARB plus a thiazide diuretic, or an ACEI/ARB plus a calcium channel blocker. The study consists of two parts: Part 1 consists of an 8-week treatment period in which the patients are to be assigned to one of 4 dose groups in equal ratio testing 0.5 mg, 1 mg, and 2 mg baxdrostat effects compared to a placebo. Patients are to administer double-blind baxdrostat tablets once per day while they continue taking the background antihypertensive medications. After 8 weeks of double-blind treatment, patients were to enter part 2 of the study unless the patient was assigned to the 2 mg group and the SBP remains ≥130 mmHg. In part 2 of the study, all patients are to cease dosing with background antihypertensive medication and take only baxdrostat 2 mg dose as a monotherapy for 4 weeks.
The secondary objectives are to evaluate the change from baseline in mean seated DBP with each of the selected dose strengths of baxdrostat compared to placebo after 8 weeks of treatment (Part 1), the change from baseline in 24-hour urine aldosterone and serum aldosterone levels with each of the selected dose strengths of baxdrostat compared to placebo after 8 weeks of treatment (Part 1), the percentage of patients achieving a mean seated SBP<130 mmHg (“responders”) with each of the selected dose strengths of baxdrostat compared to placebo after 8 weeks; and the change from baseline in 24-hour urine renin and serum renin levels with baxdrostat compared to placebo after 8 weeks of treatment. Patients who have completed the Part 2 study through Week 12 or who were considered withdrawn at the end of Part 1 may be eligible to enter a separate open label extension study (Study 130). Part 2 is an exploratory phase of the trial designed to evaluate the effect of 4 weeks of monotherapy with 2 mg baxdrostat in this hypertensive population, but the major goal of the Part 2 period is to transition patients to a long-term open label safety extension study of baxdrostat at the highest dose likely to be used in the hypertension population.
In Part 2, background antihypertensive therapy was discontinued following Part 1, and patients took two mg Baxdrostat for four additional weeks. […] There were two cases of moderate hyperkalemia with K+>/=6.0 mEq/L in the 213 patients in Part 2; both patients had stopped diuretic at the start of Part 2 and developed transient moderate hyperkalemia within 2 weeks.

**Q.** Which “TEAEs Drug-Related, n - Number of subjects” value (from here on “TEAEs Drug-Related, n”) (2 mg, n = 60) does the source give for `CCC(=O)N[C@@H]1CCCc2c(-c3ccc4c(c3)CCC(=O)N4C)cncc21` [baxdrostat, (R)—N-(4-(1-methyl-2-oxo-1,2,3,4-tetrahydroquinolin-6-yl)-5,6,7,8-tetrahydroisoquinolin-8-yl) propionamide] here?
**A.** 0

**Q.** What about the “TEAEs Leading to death, %” value (2 mg, n = 60) of the same molecule?
**A.** 0.0%

**Q.** And the “TEAEs Leading to death, e - Number of events” value (“TEAEs Leading to death, e” below) (2 mg, n = 60)?
**A.** 0

**Q.** What about the “TEAEs Leading to death, n - Number of subjects” value (shortened to “TEAEs Leading to death, n”) (2 mg, n = 60) of the same molecule?
**A.** 0

**Q.** And the “TEAEs Leading to dosing discontinuation, %” value (2 mg, n = 60)?
**A.** 0%

**Q.** What about the “TEAEs Leading to dosing discontinuation, e - Number of events” value (2 mg, n = 60) of the same molecule?
**A.** 0

**Q.** And the “TEAEs Leading to dosing discontinuation, n - Number of subjects” value (2 mg, n = 60)?
**A.** 0

**Q.** And the “TEAEs Leading to study discontinuation, %” value (2 mg, n = 60)?
**A.** 0.0%

**Q.** And the “TEAEs Leading to study discontinuation, e - Number of events” value (2 mg, n = 60)?
**A.** 0

**Q.** What about the “TEAEs Leading to study discontinuation, n - Number of subjects” value (2 mg, n = 60) of the same molecule?
**A.** 0

**Q.** What about the “TEAEs, %” value (2 mg, n = 60) of the same molecule?
**A.** 16.7%

**Q.** And the “TEAEs, e - Number of events” value (2 mg, n = 60)?
**A.** 9

**Q.** What about the “TEAEs, n - Number of subjects” value (2 mg, n = 60) of the same molecule?
**A.** 7

**Q.** What about the “AESI, %” value (Placebo to 2 mg, n = 64) of the same molecule?
**A.** 1.7%

**Q.** And the “AESI, e - Number of events” value (Placebo to 2 mg, n = 64)?
**A.** 2

**Q.** What about the “AESI, n - Number of subjects” value (Placebo to 2 mg, n = 64) of the same molecule?
**A.** 1

**Q.** And the “SAEs, %” value (Placebo to 2 mg, n = 64)?
**A.** 3.3%

**Q.** What about the “SAEs, e - Number of events” value (Placebo to 2 mg, n = 64) of the same molecule?
**A.** 2

**Q.** And the “SAEs, n - Number of subjects” value (Placebo to 2 mg, n = 64)?
**A.** 2

**Q.** And the “TEAEs Drug-Related, %” value (Placebo to 2 mg, n = 64)?
**A.** 5.0%

**Q.** And the “TEAEs Drug-Related, e - Number of events” value (Placebo to 2 mg, n = 64)?
**A.** 5

**Q.** And the “TEAEs Drug-Related, n” value (Placebo to 2 mg, n = 64)?
**A.** 3

**Q.** What about the “TEAEs Leading to death, %” value (Placebo to 2 mg, n = 64) of the same molecule?
**A.** 0.0%

**Q.** What about the “TEAEs Leading to death, e” value (Placebo to 2 mg, n = 64) of the same molecule?
**A.** 0

**Q.** What about the “TEAEs Leading to death, n” value (Placebo to 2 mg, n = 64) of the same molecule?
**A.** 0

**Q.** And the “TEAEs Leading to dosing discontinuation, %” value (Placebo to 2 mg, n = 64)?
**A.** 0%

**Q.** What about the “TEAEs Leading to dosing discontinuation, e - Number of events” value (Placebo to 2 mg, n = 64) of the same molecule?
**A.** 0

**Q.** And the “TEAEs Leading to dosing discontinuation, n - Number of subjects” value (Placebo to 2 mg, n = 64)?
**A.** 0

**Q.** And the “TEAEs Leading to study discontinuation, %” value (Placebo to 2 mg, n = 64)?
**A.** 0.0%

**Q.** And the “TEAEs Leading to study discontinuation, e - Number of events” value (Placebo to 2 mg, n = 64)?
**A.** 0

**Q.** And the “TEAEs Leading to study discontinuation, n - Number of subjects” value (Placebo to 2 mg, n = 64)?
**A.** 0

**Q.** What about the “TEAEs, %” value (Placebo to 2 mg, n = 64) of the same molecule?
**A.** 21.7%

**Q.** What about the “TEAEs, e - Number of events” value (Placebo to 2 mg, n = 64) of the same molecule?
**A.** 24

**Q.** What about the “TEAEs, n - Number of subjects” value (Placebo to 2 mg, n = 64) of the same molecule?
**A.** 13

**Q.** And the “AESI, %” value (Total, n = 249)?
**A.** 1.4%

**Q.** What about the “AESI, e - Number of events” value (Total, n = 249) of the same molecule?
**A.** 4

**Q.** And the “AESI, n - Number of subjects” value (Total, n = 249)?
**A.** 3

**Q.** And the “SAEs, %” value (Total, n = 249)?
**A.** 1.4%

**Q.** What about the “SAEs, e - Number of events” value (Total, n = 249) of the same molecule?
**A.** 4

**Q.** And the “SAEs, n - Number of subjects” value (Total, n = 249)?
**A.** 3

**Q.** What about the “TEAEs Drug-Related, %” value (Total, n = 249) of the same molecule?
**A.** 5.2%

**Q.** And the “TEAEs Drug-Related, e - Number of events” value (Total, n = 249)?
**A.** 15

**Q.** And the “TEAEs Drug-Related, n” value (Total, n = 249)?
**A.** 11

**Q.** What about the “TEAEs Leading to death, %” value (Total, n = 249) of the same molecule?
**A.** 0.0%

**Q.** And the “TEAEs Leading to death, e” value (Total, n = 249)?
**A.** 0

**Q.** And the “TEAEs Leading to death, n” value (Total, n = 249)?
**A.** 0

**Q.** And the “TEAEs Leading to dosing discontinuation, %” value (Total, n = 249)?
**A.** 0.9%

**Q.** And the “TEAEs Leading to dosing discontinuation, e - Number of events” value (Total, n = 249)?
**A.** 3

**Q.** What about the “TEAEs Leading to dosing discontinuation, n - Number of subjects” value (Total, n = 249) of the same molecule?
**A.** 2

**Q.** What about the “TEAEs Leading to study discontinuation, %” value (Total, n = 249) of the same molecule?
**A.** 0.0%

**Q.** What about the “TEAEs Leading to study discontinuation, e - Number of events” value (Total, n = 249) of the same molecule?
**A.** 0

**Q.** What about the “TEAEs Leading to study discontinuation, n - Number of subjects” value (Total, n = 249) of the same molecule?
**A.** 0

**Q.** And the “TEAEs, %” value (Total, n = 249)?
**A.** 19.2%

**Q.** What about the “TEAEs, e - Number of events” value (Total, n = 249) of the same molecule?
**A.** 74

**Q.** What about the “TEAEs, n - Number of subjects” value (Total, n = 249) of the same molecule?
**A.** 41
